Measurements from article PMC12527922, “Cocaine chemogenetics blunts drug-seeking by synthetic physiology” (Nature, 2025).
“And” between values parts separate entries of the source, which are not always exact repeats. Equal values may be shown once. Read-outs that look alike come from different tables or passages of the source.

Assays:
coca-5HT3 = coca-5HT3 (Homo sapiens, UniProt P36544, G175K/L141G/Y210F/Y217F); experiment: [^3H]ASEM displacement, membranes of HEK293 cells expressing coca-5HT3; format: binding, human α7 nAChR LBD, mouse 5HT3 IPD; details: for [3H]ASEM binding, normalised dose-response (DR replicates): HotNM 2.000
coca-5HT3, sequence (P23979 242-489): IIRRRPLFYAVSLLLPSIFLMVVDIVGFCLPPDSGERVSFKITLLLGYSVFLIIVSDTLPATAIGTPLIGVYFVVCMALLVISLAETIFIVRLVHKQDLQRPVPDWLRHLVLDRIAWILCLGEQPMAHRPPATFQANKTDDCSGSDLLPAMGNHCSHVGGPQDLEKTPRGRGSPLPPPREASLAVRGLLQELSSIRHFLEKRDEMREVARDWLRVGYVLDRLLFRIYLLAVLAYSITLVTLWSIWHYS
coca-5HT3, sequence (P36544 23-224 L141G/G175K/Y210F/Y217F): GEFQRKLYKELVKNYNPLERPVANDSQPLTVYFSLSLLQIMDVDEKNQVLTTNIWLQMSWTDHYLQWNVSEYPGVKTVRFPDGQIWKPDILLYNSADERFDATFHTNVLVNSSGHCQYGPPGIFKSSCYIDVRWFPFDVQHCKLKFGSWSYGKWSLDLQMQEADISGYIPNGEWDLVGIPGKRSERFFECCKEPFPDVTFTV
Procedure: Cells were suspended in Tris-HCl 50 mM pH 7.4 supplemented with protease inhibitor cocktail (1:100, Sigma-Aldrich). HEK293 cells were disrupted with a 6 Polytron homogenizer (Kinematica). Homogenates were centrifuged at 48,000g (50 min, 4 °C) and washed twice in the same conditions to isolate the membrane fraction. Protein was quantified using the bicinchoninic acid method (Pierce). […] Free and membrane-bound radioligands were separated by rapid filtration of 500 μl aliquots in a 96-well plate harvester (Brandel) and washed with 2 ml of ice-cold Tris-HCl buffer. Microscint-20 scintillation liquid (65 μl per well, PerkinElmer) was added to the filter plates, plates were incubated overnight at room temperature and radioactivity counts were determined in the MicroBeta2 plate counter (PerkinElmer) with an efficiency of 41%. Two-site competition curves were fitted using Prism 10 (GraphPad). Ki values were calculated using the Cheng–Prusoff equation.

[1] = estimated from self-administration; cited from earlier work
coca-GlyR = molecular target: T1, coca-GlyR (Homo sapiens, UniProt P23415+P36544, G175K/L141G/Y217F); experiment: Whole-cell voltage-clamp in HEK293 cells, coca-GlyR; format: cell-based; details: transfected HEK293
T1 construct: expressed in transfected cells; host or cells: HEK293 (ATCC CRL-1573), pcDNA3.1
T1 sequence (P36544+P23415 fused P36544:L141G/P36544:G175K/P36544:Y217F): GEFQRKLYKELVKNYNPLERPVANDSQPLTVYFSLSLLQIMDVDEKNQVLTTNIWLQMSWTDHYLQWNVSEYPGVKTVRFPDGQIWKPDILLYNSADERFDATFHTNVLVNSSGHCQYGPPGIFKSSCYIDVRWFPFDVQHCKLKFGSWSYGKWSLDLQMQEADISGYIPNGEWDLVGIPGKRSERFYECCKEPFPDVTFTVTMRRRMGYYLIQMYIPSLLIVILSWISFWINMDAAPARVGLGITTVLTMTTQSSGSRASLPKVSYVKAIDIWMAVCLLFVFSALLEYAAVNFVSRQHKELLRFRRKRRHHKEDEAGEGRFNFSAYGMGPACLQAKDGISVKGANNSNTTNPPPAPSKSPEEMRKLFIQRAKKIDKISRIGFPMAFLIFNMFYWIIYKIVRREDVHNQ
Procedure: Channel mutants and agonists were further characterized in whole-cell voltage-clamp experiments performed on HEK293 cells. At passage 44–48, cells were plated at low density (1 × 10^3 per cm^2) on poly-D-lysine-coated glass coverslips, then transfected in 10 cm^2 wells using the Fugene 6 transfection reagent (Roche) with DNA plasmids containing both an ion channel cDNA (pcDNA3.1, 2 µg per well) and cDNA for GFP (pCMV, 0.1 μg per well), followed by replacement of the medium after 3 h. Recordings were made 24–72 h after transfection.
Electrophysiological recordings were performed in whole-cell voltage-clamp mode, on an inverted fluorescence microscope (Olympus IX-51) using pClamp software and a […] amplifier (Molecular Devices). Electrophysiological data was filtered at 4 kHz, digitized at 10 kHz using a Digidata 1400 interface (Molecular Devices), recorded on a PC (Dell) and analysed using custom MATLAB software (MathWorks). Solutions were delivered from a gravity fed perfusion system through a capillary tube placed approximately […] from the recorded cell using an eight-way manifold pinch valve system (Nanion), which was controlled from the acquisition software. This allowed for up to seven concentrations of agonist to be tested. […]

control rats = experiment: Cocaine IVSA (intravenous self-administration), control rats; format: in vivo, rat
[2] = test system: hippocampal neurons expressing GFP; experiment: Current-clamp of control cultured hippocampal neurons expressing GFP; format: cell-based, rat; details: for DmV MEAN: IRES-EGFP control, MEAN of cells
[3] = Two sites - Fit Ki, best-fit value per replicate
[4] = Two sites - Fit Ki, best-fit value, single experiment

In the case of `COC(=O)[C@H]1[C@@H](OC(=O)c2ccccc2)C[C@@H]2CC[C@H]1N2C` [cocaine], the “binding to coca-5HT3” value (coca-5HT3) is reported as “biphasic manner”, the Ki (coca-5HT3; KiHi MEAN, Two sites - Fit Ki, MEAN of replicates, high-affinity site, concentrations in log(M)) is reported as 1.43e-11 M and the Ki (coca-5HT3; KiHi, Two sites - Fit Ki, best-fit value per replicate, high-affinity site, concentrations in log(M)) is reported as 2.45e-11 M and 4.07e-12 M. The Ki (coca-5HT3; KiHi, Two sites - Fit Ki, best-fit value, single experiment) was 3.36e-09 M and 4.69e-10 M and 1.04e-09 M, the Ki (coca-5HT3; KiLo MEAN, Two sites - Fit Ki, MEAN of replicates, low-affinity site, concentrations in log(M)) was 8.42e-07 M and the Ki (coca-5HT3; KiLo, Two sites - Fit Ki, best-fit value per replicate, low-affinity site, concentrations in log(M)) was 1.34e-06 M and 3.42e-07 M. For the same compound, the “FractionHi MEAN” value (coca-5HT3; Two sites - Fit Ki, MEAN of 3 experiments) was 0.4542, the Ki (coca-5HT3; Two sites - Fit Ki, MEAN of 3 experiments, read-out: KiHi MEAN) was 1.62e-09 M and the Ki (coca-5HT3; Two sites - Fit Ki, MEAN of 3 experiments, read-out: KiLo MEAN) was 1.05e-05 M. For the same compound, the Bottom (coca-5HT3; [3]) was 2.185 and 3.88, the Top (coca-5HT3; [3]) was 100.5 and 97.8 and the FractionHi (coca-5HT3; Two sites - Fit Ki, best-fit value per replicate, fraction of high-affinity sites) was 0.3742 and 0.3845. The logKiHi (coca-5HT3; Two sites - Fit Ki, best-fit value per replicate, high-affinity site, concentrations in log(M), HotNM 2.000, HotKdNM 0.1500) was -10.61 and -11.39, the logKiLo (coca-5HT3; Two sites - Fit Ki, best-fit value per replicate, low-affinity site, concentrations in log(M), HotNM 2.000, HotKdNM 0.1500) was -5.872 and -6.466 and the FractionHi (coca-5HT3; [4]) was 0.6584 and 0.3371 and 0.3672. The Top (coca-5HT3; [4]) was 99.93 and 93.31 and 95.95, the “FractionHi MEAN” value (coca-5HT3; Two sites - Fit Ki, MEAN of replicates) was 0.3794 and the high-affinity binding sites (coca-5HT3; biphasic curve, displacement of [^3H]ASEM 2 nM) was 45 ± 10%. The “[3H]ASEM binding, normalised dose-response (DR replicates)” value (coca-5HT3; competitor log(M) -4) was 11.458 and 0, the “[3H]ASEM binding remaining, single experiment” value (“[3H]ASEM binding remaining” below) (coca-5HT3; competitor log(M) -5) was 23.47 and 26.447 and 37.669 and the “[3H]ASEM binding, normalised dose-response (DR replicates)” value (coca-5HT3; competitor log(M) -5) was 47.775 and 41.228. The “[3H]ASEM binding remaining” value (coca-5HT3; competitor log(M) -5.5) was 17.557, the “[3H]ASEM binding, normalised dose-response (DR replicates)” value (coca-5HT3; competitor log(M) -5.5) was 48.554 and 26.456 and the “[3H]ASEM binding remaining” value (coca-5HT3; competitor log(M) -6) was 27.001. The “[3H]ASEM binding, normalised dose-response (DR replicates)” value (coca-5HT3; competitor log(M) -6) was 57.625 and 37.983, the “[3H]ASEM binding remaining” value (coca-5HT3; competitor log(M) -6.5) was 30.205 and 53.107 and the “[3H]ASEM binding, normalised dose-response (DR replicates)” value (coca-5HT3; competitor log(M) -6.5) was 51.124 and 74.04. The “[3H]ASEM binding remaining” value (coca-5HT3; competitor log(M) -7) was 57.024 and 47.634, the “[3H]ASEM binding, normalised dose-response (DR replicates)” value (coca-5HT3; competitor log(M) -7) was 70.9 and 74.174 and the “[3H]ASEM binding, normalised dose-response (DR replicates)” value (coca-5HT3; competitor log(M) -7.5) was 71.728. The “[3H]ASEM binding remaining” value (coca-5HT3; competitor log(M) -8) was 65.97 and 67.573 and 58.641, the “[3H]ASEM binding, normalised dose-response (DR replicates)” value (coca-5HT3; competitor log(M) -8) was 67.385 and 47.743 and the “[3H]ASEM binding remaining” value (coca-5HT3; competitor log(M) -8.5) was 74.698 and 69.889 and 68.057. The “[3H]ASEM binding remaining” value (coca-5HT3; competitor log(M) -9) was 100.179 and 77.048 and 83.003, the “[3H]ASEM binding, normalised dose-response (DR replicates)” value (coca-5HT3; competitor log(M) -9) was 72.343 and 49.428 and the “[3H]ASEM binding remaining” value (coca-5HT3; competitor log(M) -9.5) was 97.899 and 80.952 and 89.425. For the same compound, the “[3H]ASEM binding remaining” value (coca-5HT3; competitor log(M) -10) was 96.081 and 90.356 and 93.104, the “[3H]ASEM binding, normalised dose-response (DR replicates)” value (coca-5HT3; competitor log(M) -10) was 79.023 and the “[3H]ASEM binding remaining” value (coca-5HT3; competitor log(M) -10.5) was 106.622 and 85.323 and 92.652. The “[3H]ASEM binding remaining” value (coca-5HT3; competitor log(M) -11) was 94.021 and 93.563 and 93.105, the “[3H]ASEM binding, normalised dose-response (DR replicates)” value (coca-5HT3; competitor log(M) -11) was 91.338 and the “[3H]ASEM binding remaining” value (coca-5HT3; competitor log(M) -13) was 96.794 and 101.374 and 101.832. The “[3H]ASEM binding, normalised dose-response (DR replicates)” value (coca-5HT3; competitor log(M) -13) was 100.546 and 98.09, the Ki (coca-5HT3; high-affinity inhibition constant (KiH), displacement of [^3H]ASEM 2 nM, two-site fit) was 1.6e-09 ± 9e-10 M and the Ki (coca-5HT3; logKiHi, Two sites - Fit Ki, best-fit value, single experiment) was 3.37e-09 M and 4.69e-10 M and 1.04e-09 M. The Ki (coca-5HT3; read-out: low-affinity inhibition constant (KiL), displacement of [^3H]ASEM 2 nM, two-site fit) was 1e-05 ± 7e-06 M, the brain cocaine concentrations [1] was 2.5 to 20 µM and the “currents from coca-GlyR” value (coca-GlyR) was “large, sustained currents”. The “Sheet 3g, Mean (per-rat counts at each dose)” value (control rats; Dose 0.0625) was 37.2, the “Sheet 3h, Mean (sheet 3g count x dose, intake)” value (“Sheet 3h, Mean” below) (control rats; Dose 0.0625) was 2.325 and the “Sheet 3g, Mean (per-rat counts at each dose)” value (control rats; Dose 0.125) was 69.7333. The “Sheet 3h, Mean” value (control rats; Dose 0.125) was 8.717, the “Sheet 3g, Mean (per-rat counts at each dose)” value (control rats; Dose 0.25) was 50.5385 and the “Sheet 3h, Mean” value (control rats; Dose 0.25) was 12.6346. For the same compound, the “Sheet 3g, Mean (per-rat counts at each dose)” value (control rats; Dose 0.5) was 27.6667, the “Sheet 3h, Mean” value (control rats; Dose 0.5) was 13.8333 and the “Sheet 3g, Mean (per-rat counts at each dose)” value (control rats; Dose 1) was 15. The “Sheet 3h, Mean” value (control rats; Dose 1) was 15, the “depolarization of control neurons” value ([2]; GFP control neurons) was “did not affect control neurons” and the “DmV MEAN” value ([2]; cocaine 0.1 uM) was -0.03 mV. The “DmV MEAN” value ([2]; cocaine 0.3 uM) was -0.2411 mV, the “DmV MEAN” value ([2]; cocaine 1 uM) was 0.04889 mV and the “DmV MEAN” value ([2]; cocaine 3 uM) was 0.31 mV. The “DmV MEAN” value ([2]; cocaine 10 uM) was -0.01556 mV and the “DmV MEAN” value ([2]; cocaine 30 uM) was -0.4375 mV.
